This note sets out measurements from PubChem BioAssay AID2742 (NMMLSC, 2010).

This assay in a line: modulators of MEP2-GFP levels in yeast, dose response, S. cerevisiae, flow cytometry GFP, MLPCN hits (AID 2742).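 Further: GFP tag reports level of MEP2 protein as a downstream target of TOR signalling.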 The following applies: S. cerevisiae MEP2-GFP strain, flow cytometry fluorescence, 3 h; at 33 µM (top of the series). A general note: A flow cytometer gives signals particle by particle.

Calls of active or inactive are those of the source.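 How the source made its calls: active means fitted half-maximal concentration for changing background-corrected GFP signal at or below a set limit; inactive means the rest.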

For `Cc1ccc(N2C(=O)CC(Sc3ncn[nH]3)C2=O)cc1C` (stereo unspecified), the GFP fluorescence (kMESF), higher = increase is 3.74 kMESF (inactive).

Turning to `O=C(c1ccccc1)c1ccccc1N1C(=O)C=CC1=O`, the GFP fluorescence (kMESF), higher = increase was 4.22 kMESF (inactive).

Turning to `Cc1ccc(N=Nc2ccc(O)c3ncccc23)cc1`, the GFP fluorescence (kMESF), higher = increase was 3.18 kMESF (inactive).

For `O=C(Oc1c(Cl)cc(Cl)c2cccnc12)c1ccco1`, the GFP fluorescence (kMESF), higher = increase was 9.81 kMESF (inactive).

As to `Cc1ccnc(N2C(=O)c3cccc4c([N+](=O)[O-])ccc(c34)C2=O)c1`, the GFP fluorescence (kMESF), higher = increase is 24.6 kMESF (inactive).

As to `O=[N+]([O-])c1ccc(O)c(/C=N/Nc2ccccn2)c1`, the GFP fluorescence (kMESF), higher = increase was 5.62 kMESF (inactive).

As for `N/C(=N\OC(=O)c1cc(Br)ccc1Cl)c1ccccn1`, the GFP fluorescence (kMESF), higher = increase was 5.31 kMESF (inactive).

Consider `CCOc1ccc(N/N=C(/C#N)C(N)=O)cc1`, for which the GFP fluorescence (kMESF), higher = increase is 2.43 kMESF (inactive).

In the case of `Cc1ccc(-c2nn(C(C)(C)C)c3ncnc(N)c23)cc1`, the GFP fluorescence (kMESF), higher = increase was 6.01 kMESF (inactive).

Take `Cc1ccc(NC(=O)CCc2ccccc2)cc1S(=O)(=O)N1CCOCC1`: the GFP fluorescence (kMESF), higher = increase is 1.72 kMESF (inactive).

Consider `Cc1ccc(C2=NOC(=O)/C2=C\c2ccc(C)o2)cc1`, for which the GFP fluorescence (kMESF), higher = increase is 2.14 kMESF (inactive).

For the compound `Nc1c(C(=O)c2cccs2)sc2nsc(SCCN3CCCCC3)c12`, the GFP fluorescence (kMESF), higher = increase was 15.6 kMESF (inactive).

For `CCN1C(=O)/C(=C\C(=O)c2cccs2)c2cc(Br)ccc21`, the GFP fluorescence (kMESF), higher = increase is 9.04 kMESF (inactive).

Regarding `CCCc1cc(=O)oc2cc(C)cc(OCC(=O)NC3CC3)c12`, the GFP fluorescence (kMESF), higher = increase is 1.67 kMESF (inactive).

`Cc1ccc(S(=O)(=O)c2ncccc2[N+](=O)[O-])cc1`: the GFP fluorescence (kMESF), higher = increase is 3.64 kMESF (inactive).

Consider `O=C1c2ccccc2C(=O)C2OC12` (stereo unspecified), for which the GFP fluorescence (kMESF), higher = increase is 3.37 kMESF (inactive).

Turning to `C#CCOCCOCCOCCNc1nc(N2CCN(C(=O)CCCCCCCCCCNC(=O)[C@H](CCCCN)n3cc(CCO)nn3)CC2)nc(N2CCN(C(=O)CCCCCCCCCCNC(=O)[C@H](CCCN=C(N)N)n3cc(C[C@@H](C)CC)nn3)CC2)n1`, the GFP fluorescence (kMESF), higher = increase is 3.54 kMESF (inactive).

For the compound `C[C@H]1C[C@@H](C)C(=O)[C@@H]([C@H](O)CC2CC(=O)NC(=O)C2)C1`, the GFP fluorescence (kMESF), higher = increase was 3.18 kMESF (inactive).

Regarding `Cc1ccc(S(=O)(=O)N2CCCC2C(=O)NCc2ccncc2)cc1` (stereo unspecified), the GFP fluorescence (kMESF), higher = increase is 2.1 kMESF (inactive).

With `O=C1/C(=C\c2ccc(O)c(O)c2)SC(=S)N1Cc1ccccc1`, the GFP fluorescence (kMESF), higher = increase was -21.1 kMESF (inactive).

Turning to `Cc1nn(C)c(C)c1N1C(=O)c2cccc3c(Br)ccc(c23)C1=O`, the GFP fluorescence (kMESF), higher = increase was 3.61 kMESF (inactive).

In the case of `Cc1nn2c(NCc3ccccn3)c3c(nc2c1-c1ccccc1)CCC3`, the GFP fluorescence (kMESF), higher = increase is 2.73 kMESF (inactive).

Consider `O=C(/C=C/c1ccc(Cl)c([N+](=O)[O-])c1)c1cccnc1`, for which the GFP fluorescence (kMESF), higher = increase was 3.17 kMESF (inactive).

In the case of `O=C(Nc1cccc(-c2csc(Nc3ccccc3)n2)c1)c1ccccc1`, the GFP fluorescence (kMESF), higher = increase was 2.61 kMESF (inactive).

For the compound `O=[N+]([O-])c1ccc(S(=O)(=O)c2ccccc2)nc1`, the GFP fluorescence (kMESF), higher = increase was 5.25 kMESF (inactive).

Regarding `N/C(=N\OC(=O)c1ccccc1Cl)c1ccc(Cl)cc1`, the GFP fluorescence (kMESF), higher = increase was 3.91 kMESF (inactive).

For the compound `N=C1/C(=C\c2coc3ccccc3c2=O)C(=O)N=C2SC(c3ccncc3)=NN12`, the GFP fluorescence (kMESF), higher = increase was -3.13 kMESF (inactive).

For the compound `Oc1c(I)cc(I)c2cccnc12`, the GFP fluorescence (kMESF), higher = increase is 4.67 kMESF (inactive).

On to `COc1ccc(C(=O)/C=C2/C(=O)Nc3ccccc32)cc1`, for which the GFP fluorescence (kMESF), higher = increase is 4.25 kMESF (inactive).

As to `CSC1=NS(=O)(=O)c2c(C)nn(C)c2S1`, the GFP fluorescence (kMESF), higher = increase was 4.13 kMESF (inactive).

Turning to `Cc1ccc(NC(=O)c2nc(S(=O)(=O)Cc3ccccc3)ncc2Cl)cc1`, the GFP fluorescence (kMESF), higher = increase is 3.33 kMESF (inactive).

Consider `COc1cc(/C=C2/C(=O)ON=C2c2ccccc2)ccc1O`, for which the GFP fluorescence (kMESF), higher = increase was 3.68 kMESF (inactive).

Consider `O=[N+]([O-])c1ccc(S(=O)(=O)c2cccc(C(F)(F)F)c2)nc1`, for which the GFP fluorescence (kMESF), higher = increase was 4.85 kMESF (inactive).

Turning to `O=S(=O)(CCN(CCS(=O)(=O)C(F)(F)F)CC1CCCO1)C(F)(F)F` (stereo unspecified), the GFP fluorescence (kMESF), higher = increase was 4.69 kMESF (inactive).

Take `COc1ccc(NC(=O)/C(C#N)=C/c2ncc([N+](=O)[O-])n2C)c(OC)c1`: the GFP fluorescence (kMESF), higher = increase is 4.5 kMESF (inactive).

For the compound `Cc1cccc(C)c1NC(=O)C(Cl)C(=O)c1ccccc1` (stereo unspecified), the GFP fluorescence (kMESF), higher = increase is 4.47 kMESF (inactive).

For `O=C1C(Cl)=C(Nc2ccccc2O)C(=O)N1c1ccccc1`, the GFP fluorescence (kMESF), higher = increase was 4.11 kMESF (inactive).

Take `COc1cc(N=c2ssnc2Cl)cc(OC)c1`: the GFP fluorescence (kMESF), higher = increase was 4.07 kMESF (inactive).

`Cc1c(NC2=C(Cl)C(=O)N(c3ccccc3)C2=O)c(=O)n(-c2ccccc2)n1C`: the GFP fluorescence (kMESF), higher = increase was 2.91 kMESF (inactive).

`O=C(C#Cc1ccccc1)c1cccc([N+](=O)[O-])c1`: the GFP fluorescence (kMESF), higher = increase was 4.67 kMESF (inactive).

For `Cc1c(N2C(=O)/C(=C\c3ccccc3O)SC2=S)c(=O)n(-c2ccccc2)n1C`, the GFP fluorescence (kMESF), higher = increase is 4.71 kMESF (inactive).

For the compound `COC(=O)CCCC1=CC2=CC(=O)C(C)(OC(=O)CCc3ccccc3)C(=O)C2=CO1` (stereo unspecified), the GFP fluorescence (kMESF), higher = increase was 1.97 kMESF (inactive).

For the compound `O=C(OCn1ncc(Br)c(Br)c1=O)c1ccccc1Cl`, the GFP fluorescence (kMESF), higher = increase is 4.8 kMESF (inactive).

Turning to `O=S1(=O)C=C(Sc2nc3ccccc3s2)c2ccccc21`, the GFP fluorescence (kMESF), higher = increase was 5.18 kMESF (inactive).

In the case of `O=C(CS(=O)c1ccccc1[N+](=O)[O-])Oc1ccc(Br)cc1` (stereo unspecified), the GFP fluorescence (kMESF), higher = increase is 4.43 kMESF (inactive).

For `O=C(Oc1ccnc2cc(Cl)ccc12)N1CCOCC1`, the GFP fluorescence (kMESF), higher = increase was 2.97 kMESF (inactive).

Regarding `COc1cccc(/C=C2\SC(=S)N(CCCC(=O)Nc3ccc(C(=O)O)cc3)C2=O)c1`, the GFP fluorescence (kMESF), higher = increase is 1.55 kMESF (inactive).

For the compound `CCCCOc1ccc(C(=O)NNC(=S)NC(=O)CC)cc1`, the GFP fluorescence (kMESF), higher = increase is 6.17 kMESF (inactive).

As to `Cc1[nH][nH]c(=O)c1C(c1ccc(-c2ccc(Cl)cc2)o1)c1c(C)[nH][nH]c1=O`, the GFP fluorescence (kMESF), higher = increase is 3.72 kMESF (inactive).

Consider `CC1=NNC(=O)/C1=C\c1cn(-c2ccccc2)nc1-c1ccccc1`, for which the GFP fluorescence (kMESF), higher = increase was 3.11 kMESF (inactive).

As to `O=C(/C=C/c1ccc(F)cc1)NC(=S)NNC(=O)c1cnccn1`, the GFP fluorescence (kMESF), higher = increase was 4.9 kMESF (inactive).

Take `Cc1c(Br)c(=O)oc2c(Br)c(O)c(O)cc12`: the GFP fluorescence (kMESF), higher = increase was 2.07 kMESF (inactive).

In the case of `Cn1ncc(S(=O)(=O)Cc2ccccc2)c(Cl)c1=O`, the GFP fluorescence (kMESF), higher = increase was 4.57 kMESF (inactive).

Turning to `CN(c1ccccc1)c1ccc(/C=c2\s/c(=C(/C#N)C(=O)C(C)(C)C)n(Cc3ccco3)c2=O)cc1`, the GFP fluorescence (kMESF), higher = increase was 13.7 kMESF (inactive).

Regarding `O=C(COc1ccccc1)NNC(=S)NC(=O)c1ccc(Cl)cc1Cl`, the GFP fluorescence (kMESF), higher = increase was 4.07 kMESF (inactive).

Take `Nc1ccccc1SC(C[N+](=O)[O-])c1ccccc1` (stereo unspecified): the GFP fluorescence (kMESF), higher = increase is 3.67 kMESF (inactive).

With `CCOC(=O)Cn1cc(/C=C/[N+](=O)[O-])c2ccccc21`, the GFP fluorescence (kMESF), higher = increase is 4.22 kMESF (inactive).

As to `CC[C@]1(c2ccccc2OC)ON(c2ccccc2C(F)(F)F)C1=O`, the GFP fluorescence (kMESF), higher = increase was 4.31 kMESF (inactive).

Take `Cc1ccc2[nH]cc(/C=C/c3cc[n+](C)cc3)c2c1`: the GFP fluorescence (kMESF), higher = increase is 4.2 kMESF (inactive).

With `Oc1ccc(CNc2ccccc2)c2cccnc12`, the GFP fluorescence (kMESF), higher = increase was 3.28 kMESF (inactive).

Regarding `COc1cccc(N=Nc2ccc(O)c3ncccc23)c1`, the GFP fluorescence (kMESF), higher = increase is 5.8 kMESF (inactive).

Take `N/C(=N\OC(=O)c1ccc(Cl)cc1Cl)c1ccccc1`: the GFP fluorescence (kMESF), higher = increase is 3.21 kMESF (inactive).

For `O=[N+]([O-])c1ccc(Sc2nc3ccccc3o2)c([N+](=O)[O-])c1`, the GFP fluorescence (kMESF), higher = increase was 2.65 kMESF (inactive).

Consider `CN(C)c1ccc(N=Cc2nc(-c3ccccc3)oc2OC(=O)c2ccccc2)cc1`, for which the GFP fluorescence (kMESF), higher = increase is 3.17 kMESF (inactive).

For `Cc1ccc(/C=c2\sc3nc(-c4cccs4)nn3c2=O)o1`, the GFP fluorescence (kMESF), higher = increase was 8.12 kMESF (inactive).

Turning to `O=c1oc2ccccc2c(O)c1[C@H]1c2ccc(O)cc2Oc2c1c(=O)oc1ccccc21`, the GFP fluorescence (kMESF), higher = increase is 4.67 kMESF (inactive).

In the case of `CCCc1nnc(NC(=O)c2c(O)c3cccc4c3n(c2=O)CCC4)s1`, the GFP fluorescence (kMESF), higher = increase was -1.47 kMESF (inactive).

Turning to `CCCS(=O)(=O)c1nnnn1-c1cccc(OC)c1`, the GFP fluorescence (kMESF), higher = increase is 2.18 kMESF (inactive).

As to `Cc1cc(Br)c2c(c1)/C(=C/C(=O)c1cccs1)C(=O)N2`, the GFP fluorescence (kMESF), higher = increase is 3.78 kMESF (inactive).

Take `CCCCCCCCCCCCCCCC[n+]1cccc2ccccc21`: the GFP fluorescence (kMESF), higher = increase was 1.62 kMESF (inactive).

`O=C(/C=C/c1ccccn1)c1ccc(Br)cc1O`: the GFP fluorescence (kMESF), higher = increase was 2.38 kMESF (inactive).

In the case of `C=CCOc1cccc(C(=O)/C=C2/C(=O)Nc3ccccc32)c1`, the GFP fluorescence (kMESF), higher = increase was 3.41 kMESF (inactive).

For the compound `COc1ccc2c(c1)c1nnc(SC)nc1n2C`, the GFP fluorescence (kMESF), higher = increase was 1.9 kMESF (inactive).

In the case of `Cc1cccc(Nc2nc(-c3ccccn3)cs2)n1`, the GFP fluorescence (kMESF), higher = increase was 5.01 kMESF (inactive).

For `CC(=O)Oc1oc(-c2ccccc2)nc1C=Nc1ccc(N(C)C)cc1`, the GFP fluorescence (kMESF), higher = increase was 3.44 kMESF (inactive).

Regarding `O=S(=O)(c1ccccc1)c1ccc(C(F)(F)F)cn1`, the GFP fluorescence (kMESF), higher = increase is 2.27 kMESF (inactive).
